{"source": "patent US8735650B2", "about": "“Methods of modulating production of phenylpropanoid compounds in plants” (Yissum Research Development Company of the Hebrew …, priority 2007, dated 2014)", "key": {"[1]": {"system": "Pap1-transgenic petunia flowers", "test": "Phe feeding, volatile emission by dynamic headspace GC-MS", "assay_type": "in vivo, Petunia hybrida", "procedure": "(§1) Volatiles emitted from detached petunia flowers were collected using an adsorbent trap consisting of a glass tube containing 200 mg of polymer Porapak Type Q (80/100 mesh; Alltech, Deerfield, Ill.) held in place with plugs of silanized glass wool (Guterman et al., 2006). Trapped volatiles were eluted using 3 ml hexane, and 2 μg iso-butylbenzene was added per sample as an internal standard for each. To determine pool sizes of volatile compounds, limbs were ground in liquid nitrogen and extracted in hexane (4 ml g^−1 of tissue) containing 0.5 μg ml^−1 iso-butylbenzene as the internal standard. Following overnight incubation with shaking at 150 rpm, extract was centrifuged at 10,500 g for 10 min and the supernatant filtered through a 25-ml syringe with a […] sterile nylon filter. To assess whether the bound form of benzaldehyde accumulated in petunia limbs, tissue (0.6 g) was incubated with 9 ml phosphate citrate buffer pH 4.5 with or without 15 units of glucosidase mixture Novarom G (Novo Nordisk Ferment Ltd., Bagsvaerd, Denmark) at 37° C. overnight, and then transferred to −20° C. to stop enzymatic reactions. Hexane (10 ml) containing 0.5 μg ml^−1 iso-butylbenzene as an internal standard was added to each sample, and following vortexing, the upper phase was recovered.\n(§2) GC-MS analysis was performed using a device composed of a Pa1 auto-sampler (CTC Analytic, Zwingen, Switzerland), a TRACE GC 2000 equipped with an Rtx-5SIL MS (Restek, i.d. 0.25 μm, 30 m×0.25 mm) fused-silica capillary column, and a TRACE DSQ quadrupole mass spectrometer (ThermoFinnigan, Hemel, UK). Helium was used as the carrier gas at a flow rate of 0.9 ml min^−1. The injection temperature was set to 250° C. (splitless mode), the interface to 280° C., and the ion source adjusted to 200° C. The analysis was performed under the following temperature program: 5 min of isothermal heating at 50° C., followed by a 5° C. min^−1 oven temperature ramp to […], and a final increase from 250 to 280° C. at 10° C. min^−1. The transfer line temperature was 280° C. The system was equilibrated for 1 min at 70° C. before injection of the next sample. Mass spectra were recorded at 2 scan s^−1 with a scanning range of 40 to 450 mass-to-charge ratio, and an electron energy of 70 eV. Compounds were tentatively identified (>95% match) based on NIST/EPA/NIH Mass Spectral Library (Data Version: NIST 05, Software Version 2.0d) using the XCALIBUR v1.3 program (ThermoFinnigan) library. Further identification of compounds was based on comparison of mass spectra and retention times with those of authentic standards (Sigma, Milwaukee, Wis.) analyzed under similar conditions.\n(§3) For evaluating the affect of Phe feeding on volatile production, control and Pap1-transgenic flowers were collected at 0800 hour and 1600 hour, placed in a glass vial containing 10 ml of water with or without 5 mg L-phenylalanine (Duchefa, Haarlem, Netherlands) and headspace was collected during the day (0800-1600 hours) and night (1600-0800 hours). To assess internal pools of volatiles, control and Pap1-transgenic flowers collected at 1600 hour were placed in a glass vial containing 10 ml of water with or without L-phenylalanine and at 2300 hour volatile were extracted as above."}, "control petunia flowers": {"system": "control petunia flowers", "test": "Phe feeding, volatile emission by dynamic headspace GC-MS", "assay_type": "in vivo, Petunia hybrida", "settings": "during the night", "procedure": "as §1, §2, §3"}, "[2]": {"settings": "Phe fed vs non-fed Pap1-transgenic flowers, during the day"}}}
{"smiles": "N[C@@H](Cc1ccccc1)C(=O)O", "note": "[Phe, L-phenylalanine]", "values": [{"measurement": "volatile accumulation and emission", "setting": "[1]; Pap1-transgenic flowers, Phe feeding during the night", "result": "unaffected"}, {"measurement": "increase in benzaldehyde emission", "setting": "[1]; [2]", "result": "about 7 fold"}, {"measurement": "increase in methylbenzoate emission", "setting": "[1]; [2]", "result": "~5", "unit": "fold"}, {"measurement": "reduction in benzaldehyde emission", "setting": "control petunia flowers", "result": "2-3 fold"}, {"measurement": "reduction in methylbenzoate emission", "setting": "control petunia flowers", "result": "2-3 fold"}]}
